Where “and” joins values, the source holds several entries; their conditions need not be identical. Equal values may be shown once. Calls of active or inactive are those of the source.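 How the source made its calls: active means curve reaches 40% activation over neutral controls at an AC40 no higher than the top valid tested concentration; inconclusive means no clear call, values can overlap the other calls; inactive means signal moving opposite to the expected increase, and the rest.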
System: INS-1E GLuc insulin secretion reporter, luminescence, 2-3 h
Assay: activators of glucose-dependent insulin secretion, dose response, cell-based, INS-1E, Gaussia luciferase, luminescence, cherry-pick, set 2 (AID 977607)

Row | Compound | AC40
1 | Cc1ccc(-n2ncc3c(=O)n(CC(=O)Nc4cccc(Cl)c4)cnc32)cc1C | 6.37 µM
2 | CC(=O)N(C1CC(C)C(C#N)(C#N)C1(C#N)C#N)N(C)C (stereo unspecified) | 1.85 µM
3 | CC(C)C[C@H](NC(=O)c1[nH]cnc1C(=O)N[C@@H](C)c1ccccc1)C(=O)OC(C)(C)C | 31.3 µM
4 | CCOC(=O)c1[nH]c2cc(OC)c(OC)cc2c1NC(=O)c1ccc2c(c1)OCO2 | 18.1 µM
5 | O=C(NN=Cc1ccccc1Cl)c1cccc2ccccc12 | 11.6 µM
6 | COc1ccccc1C(=O)Nc1c2c(nn1-c1cccc(C)c1C)CS(=O)(=O)C2 | 7.77 µM
7 | O=C(Nc1ccc(C(F)(F)F)cc1)N1[C@@H]2CNC[C@H]1C2c1ccc(/C=C/c2ccccc2)cc1 (stereo partly specified) | 9.53 µM
8 | Cc1[nH]c2ccc(OC(F)(F)F)cc2c1CCNCc1ccc(Cl)cc1 | 6.14 µM
9 | Cc1cc(C)cc(OCCCN2CCC(C(O)(c3ccccc3)c3ccccc3)CC2)c1 | 13 µM
10 | CCc1ccc(OCC(=O)NC(=S)Nc2ccc(F)cc2)c(Br)c1 | 10 µM
11 | CCCCCCN1C[C@H](n2cc(COC(=O)c3ccccc3)nn2)[C@@H](O)C[C@@H]1c1ccc(C)cc1 | 6.42 µM
12 | CCC(C)c1ccccc1OCCCN(C)Cc1ccccc1 (stereo unspecified) | 7.97 µM
13 | O=C(CCN1CCOCC1)c1ccccc1 | 7.71 µM
14 | COc1cc(C(=O)Nc2ccn(C)n2)ccc1OC(F)F | > 35 µM (inactive)
15 | CCN(Cc1ccccc1)S(=O)(=O)c1ccc(C(=O)N(CCCN(C)C)c2nc3cc(C)cc(C)c3s2)cc1 | 17.4 µM
16 | Oc1ccccc1-c1cc(C(F)(F)C(F)F)nc(-c2ccccc2)n1 | 7.7 µM
17 | O=C(Nc1cccc(Cl)c1)Nc1nnc(CSCCOc2ccc(Cl)cc2)s1 | 5.57 µM
18 | COc1ccc(C2CNC(=O)C2)cc1OC1CCCC1 (stereo unspecified) | 1.98 µM
19 | C/C=C/c1ccc(C2[C@H]3CNC[C@@H]2N3Cc2cc(-c3ccccc3)on2)cc1 (stereo partly specified) | 9.74 µM
20 | COc1ccc(C)cc1NCc1cc(=O)oc2cc(-c3ccccc3)c(O)cc12 | 15.8 µM
21 | COc1ccccc1CCn1cnc(-c2ccc(F)cc2)c1CC(C)C | 7.14 µM
22 | COc1cc(/C=N/NC(=O)C(C)n2nnc3ccccc32)ccc1O (stereo unspecified) | 6.55 µM
23 | CN(C(=O)c1ccc2c(c1)SC1=NS(=O)(=O)CCN12)C(c1ccccc1)c1ccccc1 | 0.518 µM

Row | Compound | AC40
24 | COc1cc(CN2CCc3ccccc3C2)ccc1O | 6.75 µM
25 | Clc1ccc(-c2ccnc(Oc3cc(Cl)ccc3Cl)n2)cc1 | 7.53 µM
26 | CCCCCc1cc(=O)oc2c(C(CCN3CCCC(C)C3)c3ccc(OC)cc3)c(OC)cc(OC)c12 (stereo unspecified) | 12 µM
27 | COc1ccc(CCN(C)C(=O)c2oc3ccccc3c2C)cc1OC | 7.06 µM
28 | NS(=O)(=O)c1ccc(N=Cc2c(O)n(C3CCCCC3)c(=O)n(C3CCCCC3)c2=O)cc1 | 16 µM
29 | CC(C)(C)C1CCc2c(sc(NC(=O)c3cccs3)c2C(N)=O)C1 (stereo unspecified) | 18.3 µM
30 | N#Cc1sc2nc3c(c(-c4cccnc4)c2c1N)CCC3 | 26.5 µM
31 | CC(C)CSc1nc2c(c(=O)[nH]c(=O)n2C)n1CCc1ccccc1 | 8.81 µM
32 | COc1ccc(CN2CCN(Cc3ccccc3F)CC2)cc1 | > 35 µM (inactive)
33 | CCCc1nnc2n1N=C(c1ccc(OC)c(OC)c1)CS2 | 2.98 µM
34 | CCSc1nnc(NC(=O)c2csc3c2CCCC3)s1 | 2.22 µM
35 | C/C(=N\NC(=O)c1cccc(Br)c1)c1ccc(Br)cc1 | 16.6 µM
36 | CCOC(=O)c1nc(SC)n(C)c1C(=O)OCC | 4.49 µM
37 | COC(=O)c1ccc2c(c1)NC(=O)C(N(CC(C)C)CC(C)C)S2 (stereo unspecified) | 5.29 µM
38 | CN(C)Cc1ccccc1Sc1ccc2c(c1)CCCC2 | 16.6 µM
39 | FC(F)(F)c1cc(CCN2CCNC[C@@H]2Cc2ccccc2)cc(C(F)(F)F)c1 | 17.8 µM
40 | C=CCNC(=S)N/N=C/c1ccc(-c2cc(Cl)ccc2Cl)o1 | 5.15 µM
41 | CNc1nc(Nc2ccccc2)nc(OCC(F)(F)F)n1 | 0.606 µM
42 | O=C(Nc1ccc2c(c1)OCO2)c1sc2cc(Cl)ccc2c1Cl | 12 µM
43 | CC(C)CC#Cc1ccc2c(c1)O[C@@H](CN(C)Cc1ccc(F)cc1)[C@H](C)CN([C@H](C)CO)S2(=O)=O | 10.4 µM
44 | COc1ccc(NC(=O)c2sc3nc(N4CCOCC4)c4c(c3c2N)CC(C)(C)OC4)c(OC)c1 | 6.55 µM
45 | CCCCc1c(-c2ccccc2F)ncn1CCc1ccccc1OC | 7.64 µM
46 | CCOc1ccc(CCNC(=O)COc2cc(=O)n(C)c3ccccc23)cc1OCC | 22.6 µM

Row | Compound | AC40
47 | COc1ccc(C(=O)C2CCCN(C(=O)c3n[nH]c4c3CCCC4)C2)cc1OC (stereo unspecified) | 3.89 µM
48 | N#Cc1cccc(-c2ccc(C3[C@H]4CNC[C@@H]3N4Cc3cc(-c4ccccc4)on3)cc2)c1 (stereo partly specified) | 12 µM
49 | CCCNC(=O)c1nnsc1S(=O)(=O)c1ccc(Cl)cc1 | 1.63 µM
50 | COc1ccc2c(c1)C(=NNC(=O)c1ccccn1)c1cc(OC)ccc1-2 | 3.1 µM
51 | Cc1cccc(NC(=O)c2ccc(OCc3c(C)noc3C)cc2)c1C | 1.54 µM
52 | CC(C)n1nc(C(=O)Nc2ccccc2N2CCOCC2)c2ccccc2c1=O | 8.07 µM
53 | O=C(N/N=C/c1ccco1)c1cc(-c2ccc3ccccc3c2)n[nH]1 | 4.19 µM
54 | COc1ccccc1CCn1cnc(-c2cccc(F)c2)c1CC(C)C | 11.3 µM
55 | COc1cccc(OCc2nc3c4cnn(-c5ccccc5)c4ncn3n2)c1 | 8.5 µM
56 | Cc1ccccc1-c1ccc(C2[C@@H]3CN(C(=O)Nc4cccc(F)c4)C[C@H]2N3)cc1 (stereo partly specified) | 8.64 µM
57 | COc1ccc(C(CCNCc2ccc(OC(C)C)cc2)C(C)C)cc1 (stereo unspecified) | 21.7 µM
58 | OC[C@@H]1[C@@H](c2ccc(C#CC3CCCC3)cc2)[C@H]2CN(CCC(F)(F)F)CCCCN12 | 8.56 µM
59 | CCOc1ccc(CCNC(=O)Cn2ccc3ccccc3c2=O)cc1OCC | > 35 µM (inactive)
60 | CCOC(=O)[C@]12Cc3cc(OC)ccc3[C@H]1N(C1CCCCC1)C(=O)c1cc(OC)ccc12 | 12 µM
61 | Cc1ccc(-c2ccc(C3[C@@H]4CN(C(=O)Nc5ccc(C(F)(F)F)cc5)C[C@H]3N4)cc2)cc1 (stereo partly specified) | 4.06 µM and 2.82 µM
62 | Cc1ccccc1-n1sc2cc(F)ccc2c1=O | 1.56 µM
63 | COc1ccc(C(=O)N=C2CCC(C#N)=C3c4cc(OC)c(OC)cc4CCN23)cc1 | 0.483 µM
64 | O=c1c2ccc(F)cc2sn1-c1ccccc1 | 4.2 µM
65 | N#Cc1nccnc1S(=O)(=O)c1cccs1 | 0.467 µM
66 | OC(c1ccccc1)(c1ccccc1)C1CCN(CCCOc2ccc(-c3ccsc3)cc2)CC1 | 8.81 µM
67 | O=C(COc1ccc2c(c1)OCO2)Nc1ccc2c(c1)oc1ccccc12 | 16.4 µM
68 | CCOc1ccc(-n2nnnc2-c2nc3ccccc3s2)cc1 | 6.78 µM
69 | CS(=O)(=O)N1CCN(c2ccc(NC(=O)c3ccc(-c4ccc(Cl)cc4)o3)cc2)CC1 | 9.25 µM

Row | Compound | AC40
70 | Fc1ccc(/C=N/c2c(-c3ccc(F)cc3)nc3n2CCS3)cc1 | 6.62 µM
71 | CCCn1c2ccccc2c2cn[nH]c(=O)c21 | 16.4 µM
72 | COc1ccccc1CCn1cnc(-c2ccccc2OC)c1CC(C)C | 14.6 µM
73 | O=c1c2ccccc2sn1-c1ccc(F)cc1 | 7.1 µM
74 | COc1cc(/C=N/NC(=O)Nc2ccccc2)ccc1OCCOc1ccccc1C | 2.29 µM
75 | O=c1c(C=Nc2ccc(Oc3ccccc3)cc2)c[nH]n1-c1cccc(Cl)n1 | 6.27 µM
76 | Cc1ccc(Oc2ncc(-c3ccc(Cl)cc3)cn2)cc1 | 6.86 µM
77 | COc1ccc(OC)c(-c2nnc3n2N=C(c2ccc(OC)c(OC)c2)CS3)c1 | 0.564 µM
78 | O=C1c2cccnc2C(Nc2cccc(F)c2)N1Cc1ccco1 (stereo unspecified) | 28.5 µM
79 | O=C(Nc1ccc2ccccc2c1)c1cccc2ccccc12 | 8.55 µM
80 | COc1nc(N2CCOCC2)nc(-n2cccc2)n1 | 0.937 µM
81 | COc1cccc(-c2ccc(C3[C@@H]4CN(Cc5cccc(F)c5)C[C@H]3N4)cc2)c1 (stereo partly specified) | 4.47 µM
82 | CCCCCCn1c(N(CC)CC)nc2c1c(=O)[nH]c(=O)n2C | 23.8 µM
83 | CCOCCCNC(=O)c1oc2ccc3c(c2c1C)C(O)CC(C)(C)O3 (stereo unspecified) | 5.92 µM
84 | COc1cc2c(cc1OC)[C@H](C)N(C(=O)NCc1ccccc1)CC2 | 8 µM
85 | NS(=O)(=O)c1ccc(NC(=O)COC(=O)c2cn(-c3ccccc3)nc2-c2ccc(F)cc2)cc1 | 4.82 µM
86 | O=C1N/C(=N\N=C\c2cccs2)SC1Cc1cccc(Cl)c1 (stereo unspecified) | 9.04 µM
87 | CC(C)(c1ccccc1)c1ccc(OCC(O)CNC2CCN(Cc3ccccc3)CC2)cc1 (stereo unspecified) | 11.8 µM
88 | CC(=O)Nc1cc(-c2cccc(C(=O)NCCN(C)C)c2)cn2c(-c3cccc(C(F)(F)F)c3)cnc12 | 14.7 µM
89 | C=CCN(Cc1ccc(OC)c(OC)c1)C(=O)N1CCOCC1 | > 35 µM (inactive)
90 | CC(C)CC#Cc1ccc2c(c1)O[C@@H](CN(C)Cc1ccccc1)[C@H](C)CN([C@H](C)CO)S2(=O)=O | 9.77 µM
91 | COc1ccc(C#Cc2ccc([C@@H]3[C@@H](CO)N4CCCCN(Cc5ccccc5F)C[C@@H]34)cc2)cc1 | 14.3 µM
92 | COc1ccc(C2=NN(C(C)=O)C(c3cccs3)C2)cc1OC (stereo unspecified) | 8.92 µM

Row | Compound | AC40
93 | Cn1c(=O)oc2cc(S(=O)(=O)N3CCC(C(=O)Nc4ccc(OC(F)(F)F)cc4)CC3)ccc21 | 7.48 µM
94 | COc1ccc(CCNC(=O)CCc2nc3ccccc3[nH]2)cc1OC | 0.311 µM
95 | Clc1ccc(-c2ccnc(Oc3ccc4ccccc4c3)n2)cc1 | 8.45 µM
96 | COc1ccc(-c2cc3ccccc3oc2=O)cc1NC(=S)NC(=O)c1ccc2c(c1)OCCO2 | 4.75 µM
97 | CC1(C(=O)NS(=O)(=O)c2ccccc2Cl)CCN1C(=O)C1(c2ccccc2)CCCC1 (stereo unspecified) | 19.3 µM
98 | COc1ccc(NC(=O)Cn2cnc3c(cnn3-c3ccc(C)c(C)c3)c2=O)c(OC)c1 | 5.6 µM
99 | Cc1nc(NC(=O)c2cccc(-c3cc4ccccc4oc3=O)c2)ccc1Br | 12.7 µM
100 | COc1ccc(C)c2sc(N(CCCN(C)C)C(=O)c3ccc(S(=O)(=O)N4CCc5ccccc5C4)cc3)nc12 | 3.95 µM
101 | O=C1CC(Sc2nnc(-c3ccccc3)o2)C(=O)N1c1ccccc1 (stereo unspecified) | 12.1 µM
102 | Cc1ccc2c(Cl)c(C)c(N3CCCCC3)nc2n1 | 11.5 µM
103 | Cc1ccc(NC(=O)CNC(=O)c2sc3ccccc3c2Cl)nc1 | 14.3 µM
104 | O=C(CCN1CCOCC1)c1ccc2c(c1)OCCO2 | 14.5 µM
105 | O=c1c2ccccc2sn1-c1ccccc1 | 3.25 µM
106 | NC1=NC[C@H](c2ccccc2)N1CCCCC1CCCCC1 | 28.8 µM
107 | CC(C)CCn1c(N2CCCC2)nc2c1c(=O)[nH]c(=O)n2C | 31.7 µM
108 | COc1ccc(/C=N/NC(=O)CCOc2ccccc2C)cc1OC | 7.01 µM
109 | COc1ccc(CN(C)C(=O)Cn2cc(C)c(=O)[nH]c2=O)cc1OC | > 35 µM (inactive)
110 | NC(c1csc(Nc2ccc(C(F)(F)F)cn2)n1)C1CCCCC1 (stereo unspecified) | 9.81 µM
111 | Cc1c(O)cnc2nn(-c3ccccc3)c(=N)n12 | > 35 µM (inactive)

Reference: PubChem BioAssay AID977607 (Broad Institute, 2014)
